“And” between values parts separate entries of the source, which are not always exact repeats. Equal entries are not always repeated. Inconclusive results and toxic doses are left out. Cut-off read from the data, not from the text of the source: active = T/C of 150% or more; inactive = T/C below 125%.
System: L1210 leukemia ip in BDF1 mice, survival T/C
Assay: NCI In Vivo Anticancer Drug Screen. Data for tumor model L1210 Leukemia (intraperitoneal) in B6D2F1 (BDF1) mice
Settings: endpoint: mean survival time, higher = longer survival
Outline: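 Each compound was tested against a transplantable tumor grown in mice. The endpoint was survival, with treated animals benchmarked against vehicle controls as a simple ratio.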

[1] = dose: 100.0 mg/kg/injection, schedule: Q01DX001 (ip), vehicle: carboxymethylcellulose (CMC)
[2] = dose: 200.0 mg/kg/injection, schedule: Q01DX001 (ip), vehicle: carboxymethylcellulose (CMC)
[3] = dose: 400.0 mg/kg/injection, schedule: Q01DX001 (ip), vehicle: carboxymethylcellulose (CMC)
[4] = dose: 100.0 mg/kg/injection, schedule: Q01DX009 (ip), vehicle: Klucel (hydroxypropylcellulose) (HPC)
[5] = dose: 200.0 mg/kg/injection, schedule: Q01DX009 (ip), vehicle: Klucel (hydroxypropylcellulose) (HPC)
[6] = dose: 400.0 mg/kg/injection, schedule: Q01DX009 (ip), vehicle: Klucel (hydroxypropylcellulose) (HPC)
[7] = dose: 100.0 mg/kg/injection, schedule: Q01DX001 (ip), vehicle: saline
[8] = dose: 200.0 mg/kg/injection, schedule: Q01DX001 (ip), vehicle: saline
[9] = dose: 400.0 mg/kg/injection, schedule: Q01DX001 (ip), vehicle: saline
[10] = dose: 100.0 mg/kg/injection, schedule: Q01DX009 (ip), vehicle: acetone
[11] = dose: 100.0 mg/kg/injection, schedule: Q04DX003 (ip), vehicle: acetone
[12] = dose: 200.0 mg/kg/injection, schedule: Q01DX009 (ip), vehicle: acetone
[13] = dose: 200.0 mg/kg/injection, schedule: Q04DX003 (ip), vehicle: acetone
[14] = dose: 400.0 mg/kg/injection, schedule: Q04DX003 (ip), vehicle: acetone
[15] = dose: 50.0 mg/kg/injection, schedule: Q04DX003 (ip), vehicle: saline
[16] = dose: 100.0 mg/kg/injection, schedule: Q01DX009 (ip), vehicle: saline
[17] = dose: 100.0 mg/kg/injection, schedule: Q04DX003 (ip), vehicle: saline

Measured: T/C

CC(O)c1ccc2c(c1)Cc1ccccc1-2 (configuration not stated)
inactive: dose: 50.0 mg/kg/injection, schedule: Q01DX001 (ip), vehicle: carboxymethylcellulose (CMC) 104 % of control | [1] 91 % of control | [2] 91 % of control | [3] 91 % of control

CC(C)=CCNc1ncnc2nc[nH]c12
inactive: dose: 5.0 mg/kg/injection, schedule: Q01DX001 (ip), vehicle: saline 107 % of control | dose: 10.0 mg/kg/injection, schedule: Q01DX001 (ip), vehicle: saline 95 % of control | dose: 10.0 mg/kg/injection, schedule: Q01DX009 (ip), vehicle: saline with Tween-80 104 % of control | dose: 20.0 mg/kg/injection, schedule: Q01DX001 (ip), vehicle: saline 101 % of control | dose: 20.0 mg/kg/injection, schedule: Q01DX009 (ip), vehicle: saline with Tween-80 103 % of control | dose: 20.0 mg/kg/injection, schedule: Q04DX003 (ip), vehicle: saline with Tween-80 100 % of control | dose: 40.0 mg/kg/injection, schedule: Q01DX001 (ip), vehicle: saline 101 % of control | dose: 40.0 mg/kg/injection, schedule: Q01DX009 (ip), vehicle: saline with Tween-80 98 % of control

CC(=O)Nc1ccc(S(=O)(=O)Nc2cc(C)ccc2C)cc1
inactive: [4] 94 % of control | [5] 103 % of control | [6] 103 % of control

Cc1ccc(NC(=O)C(F)(F)C(F)(F)C(F)(F)F)cc1
inactive: [7] 89 % of control | [8] 97 % of control | [9] 105 % of control

CCOC(=O)C1(C(=O)OCC)COC(=O)C1
inactive: dose: 50.0 mg/kg/injection, schedule: Q01DX009 (ip), vehicle: acetone 94 % of control | [10] 97 % of control | [11] 107 % of control | [12] 100 % of control | [13] 96 % of control | [14] 98 % of control

Cc1ccccc1/[N+]([O-])=C/c1ccccc1
inactive: dose: 100.0 mg/kg/injection, schedule: Q01DX001 (ip), vehicle: Klucel (hydroxypropylcellulose) (HPC) 104 % of control | dose: 100.0 mg/kg/injection, schedule: Q04DX003 (ip), vehicle: Klucel (hydroxypropylcellulose) (HPC) 103 % of control | dose: 200.0 mg/kg/injection, schedule: Q01DX001 (ip), vehicle: Klucel (hydroxypropylcellulose) (HPC) 104 % of control | [5] 93 % of control | dose: 200.0 mg/kg/injection, schedule: Q04DX003 (ip), vehicle: Klucel (hydroxypropylcellulose) (HPC) 102 % of control | dose: 400.0 mg/kg/injection, schedule: Q01DX001 (ip), vehicle: Klucel (hydroxypropylcellulose) (HPC) 101 % of control | [6] 104 % of control | dose: 400.0 mg/kg/injection, schedule: Q04DX003 (ip), vehicle: Klucel (hydroxypropylcellulose) (HPC) 102 % of control

O=C(Sc1ccccc1)C(Cl)(Cl)Cl
inactive: dose: 25.0 mg/kg/injection, schedule: Q01DX009 (ip), vehicle: saline 103 % of control | dose: 50.0 mg/kg/injection, schedule: Q01DX009 (ip), vehicle: saline 97 % of control | [15] 97 % of control | dose: 100.0 mg/kg/injection, schedule: Q01DX001 (ip), vehicle: acetone 101 % of control | [16] 95 % of control | [17] 94 % of control | dose: 200.0 mg/kg/injection, schedule: Q01DX001 (ip), vehicle: acetone 95 % of control

CN=C(N)c1cccc(NC(=O)c2ccc(C(=O)Nc3cccc(C(N)=NC)c3)cc2)c1
inactive: dose: 15.0 mg/kg/injection, schedule: Q01DX Z (ip), vehicle: saline 109 % of control | dose: 30.0 mg/kg/injection, schedule: Q01DX Z (ip), vehicle: saline 93 % of control

CCCCN(CCCC)CCCN1C(=O)c2ccccc2S1(=O)=O
inactive: dose: 44.0 mg/kg/injection, schedule: Q01DX Z (ip), vehicle: methylcellulose (MC) 96 % of control | dose: 66.0 mg/kg/injection, schedule: Q01DX Z (ip), vehicle: methylcellulose (MC) 100 % of control | dose: 100.0 mg/kg/injection, schedule: Q01DX Z (ip), vehicle: methylcellulose (MC) 96 % of control

CCCCS(=O)(=O)N1CCCCC1
inactive: [16] 107 % of control | dose: 200.0 mg/kg/injection, schedule: Q01DX009 (ip), vehicle: saline 95 % of control | dose: 400.0 mg/kg/injection, schedule: Q01DX009 (ip), vehicle: saline 106 % of control

CCC1(CC)NC(=O)N(CCO)C1=O
inactive: [15] 110 % of control | [17] 95 % of control | dose: 200.0 mg/kg/injection, schedule: Q04DX003 (ip), vehicle: saline 106 % of control | dose: 400.0 mg/kg/injection, schedule: Q04DX003 (ip), vehicle: saline 105 % of control

O=C(O)CC1(C(=O)O)CC2C=CC1C2 (configuration not stated)
inactive: [1] 97 % of control and 105 % of control | dose: 100.0 mg/kg/injection, schedule: Q04DX002 (ip), vehicle: carboxymethylcellulose (CMC) 97 % of control and 98 % of control | dose: 100.0 mg/kg/injection, schedule: Q04DX003 (ip), vehicle: carboxymethylcellulose (CMC) 95 % of control and 97 % of control | [2] 97 % of control and 91 % of control | dose: 200.0 mg/kg/injection, schedule: Q04DX002 (ip), vehicle: carboxymethylcellulose (CMC) 97 % of control and 90 % of control | dose: 200.0 mg/kg/injection, schedule: Q04DX003 (ip), vehicle: carboxymethylcellulose (CMC) 97 % of control and 87 % of control | [3] 99 % of control and 103 % of control | dose: 400.0 mg/kg/injection, schedule: Q04DX002 (ip), vehicle: carboxymethylcellulose (CMC) 87 % of control and 90 % of control | dose: 400.0 mg/kg/injection, schedule: Q04DX003 (ip), vehicle: carboxymethylcellulose (CMC) 94 % of control and 90 % of control

ClC12CC3CC(CC(C3)C1)C2
inactive: [10] 92 % of control | [11] 91 % of control | [12] 95 % of control and 91 % of control | [13] 98 % of control | dose: 400.0 mg/kg/injection, schedule: Q01DX009 (ip), vehicle: acetone 93 % of control | [14] 88 % of control

COc1ccc([N+](=O)[O-])cc1NC(=S)NC(=O)c1cccc(Br)c1
inactive: [4] 92 % of control | [5] 92 % of control | [6] 97 % of control

CC1(N(O)C(=O)NCCCl)CCCCC1
inactive: dose: 100.0 mg/kg/injection, schedule: Q01DX001 (ip), vehicle: saline with Tween-80 109 % of control | dose: 200.0 mg/kg/injection, schedule: Q01DX001 (ip), vehicle: saline with Tween-80 102 % of control | dose: 400.0 mg/kg/injection, schedule: Q01DX001 (ip), vehicle: saline with Tween-80 93 % of control

O=C1CCc2cc([N+](=O)[O-])ccc2O1
inactive: dose: 50.0 mg/kg/injection, schedule: Q01DX001 (ip), vehicle: saline 103 % of control | [7] 92 % of control | [8] 94 % of control | [9] 103 % of control

O=C(NNC(=S)Nc1ccc(S(=O)(=O)N2CCCCC2)cc1)c1ccncc1
inactive: [4] 92 % of control | [5] 92 % of control | [6] 91 % of control

CCCCCCCCCCCCSC1CC(=O)N(c2ccccc2)C1=O (configuration not stated)
inactive: dose: 37.5 mg/kg/injection, schedule: Q04DX003 (ip), vehicle: other 99 % of control and 109 % of control | dose: 50.0 mg/kg/injection, schedule: Q01DX001 (ip), vehicle: other 98 % of control and 101 % of control and 104 % of control | dose: 75.0 mg/kg/injection, schedule: Q04DX003 (ip), vehicle: other 86 % of control and 89 % of control | dose: 100.0 mg/kg/injection, schedule: Q04DX002 (ip), vehicle: other 95 % of control and 89 % of control | dose: 100.0 mg/kg/injection, schedule: Q04DX003 (ip), vehicle: other 103 % of control | dose: 150.0 mg/kg/injection, schedule: Q04DX003 (ip), vehicle: other 86 % of control and 88 % of control | dose: 200.0 mg/kg/injection, schedule: Q04DX002 (ip), vehicle: other 89 % of control and 92 % of control | dose: 200.0 mg/kg/injection, schedule: Q04DX003 (ip), vehicle: other 97 % of control | dose: 400.0 mg/kg/injection, schedule: Q04DX002 (ip), vehicle: other 96 % of control and 89 % of control | dose: 400.0 mg/kg/injection, schedule: Q04DX003 (ip), vehicle: other 94 % of control

COc1ccccc1NC(=O)NC1CCCCC1
inactive: [4] 100 % of control | [5] 100 % of control | [6] 102 % of control

From PubChem BioAssay AID248 (DTP/NCI, 2004)
